Each structure is given as a SMILES string. A value given as a limit tells only on which side of the number the result lay.

The target of one assay is recombinant Mcl-1 (residues 172-327) (Homo sapiens (Human), UniProt Q07820). As to the kind of experiment: Bak peptide fluorescence polarization anisotropy competition assay, Mcl-1. Type of assay: binding.
Sequence of recombinant Mcl-1 (residues 172-327) (Q07820 172-327): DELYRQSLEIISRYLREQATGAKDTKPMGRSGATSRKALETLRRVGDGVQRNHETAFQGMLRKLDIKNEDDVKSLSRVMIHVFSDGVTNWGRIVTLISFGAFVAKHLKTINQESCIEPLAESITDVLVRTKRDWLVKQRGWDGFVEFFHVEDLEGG
Conditions: not given
A general note: Fluorescence polarisation rises when a labelled molecule tumbles more slowly, as on binding a larger partner.
As to `Cc1cc(OCCCc2c(C(=O)NS(=O)(=O)CCNC(=O)c3cn(Cc4ccccc4)c4ccccc34)[nH]c3ccccc23)cc(C)c1Cl` [Example 201, N-((2-(1-benzyl-1H-indole-3-carboxamido)ethyl)sulfonyl)-3-(3-(4-chloro-3,5-dimethylphenoxy)propyl)-1H-indole-2-carboxamide], the Ki fell in the range of 101 to 299 nM.

The assay is the same for the next values; noted with them: Table 2, Ki range; FITC-Bak peptide 10 nM, Mcl-1 14 nM; read-out: Ki for inhibition of Mcl-1.
For `Cc1cccc(S(=O)(=O)NC(=O)c2[nH]c3c(-c4c(CO)nn(C)c4C)cccc3c2CCCOc2cc(C)c(Cl)c(C)c2)c1` [Example 204, 3-(3-(4-chloro-3,5-dimethylphenoxy)propyl)-7-(3-(hydroxymethyl)-1,5-dimethyl-1H-pyrazol-4-yl)-N-(m-tolylsulfonyl)-1H-indole-2-carboxamide], the inhibitory constant (Ki) was at most 100 nM.
Still for that read-out and setting: next, `Cc1cc(OCCCc2c(C(=O)NS(=O)(=O)CCNC(=O)C3CCCCC3)[nH]c3c(-c4c(CO)nn(C)c4C)cccc23)cc(C)c1Cl` [Example 205, 3-(3-(4-chloro-3,5-dimethylphenoxy)propyl)-N-((2-(cyclohexanecarboxamido)ethyl)sulfonyl)-7-(3-(hydroxymethyl)-1,5-dimethyl-1H-pyrazol-4-yl)-1H-indole-2-carboxamide]: at most 100 nM.

The assay is the same for the next values; noted with them: read-out: Ki for inhibition of Mcl-1.
Regarding `Cc1cc(OCCCc2c(C(=O)NS(=O)(=O)CCNC(=O)c3cc(C)n(C4CC4)c3C)[nH]c3ccccc23)cc(C)c1Cl` [Example 193, 3-(3-(4-chloro-3,5-dimethylphenoxy)propyl)-N-((2-(1-cyclopropyl-2,5-dimethyl-1H-pyrrole-3-carboxamido)ethyl)sulfonyl)-1H-indole-2-carboxamide], the Ki lay within 101 to 299 nM.
Same read-out and setting: the figure for `Cc1cc(OCCCc2c(C(=O)NS(=O)(=O)CCNC(=O)c3cc(C)n(Cc4ccccc4)c3C)[nH]c3ccccc23)cc(C)c1Cl` [Example 194, N-((2-(1-benzyl-2,5-dimethyl-1H-pyrrole-3-carboxamido)ethyl)sulfonyl)-3-(3-(4-chloro-3,5-dimethylphenoxy)propyl)-1H-indole-2-carboxamide] is 101 to 299 nM; for `Cc1cc(OCCCc2c(C(=O)NS(=O)(=O)CCNC(=O)c3cc(C)n(Cc4ccncc4)c3C)[nH]c3ccccc23)cc(C)c1Cl` [Example 195, 3-(3-(4-chloro-3,5-dimethylphenoxy)propyl)-N-((2-(2,5-dimethyl-1-(pyridin-4-ylmethyl)-1H-pyrrole-3-carboxamido)ethyl)sulfonyl)-1H-indole-2-carboxamide] it is 101 to 299 nM.
The same measure, in the same setting: the figure for `Cc1cc(OCCCc2c(C(=O)NS(=O)(=O)CCNC(=O)c3ccc4c(ccn4C)c3)[nH]c3ccccc23)cc(C)c1Cl` [Example 196, 3-(3-(4-chloro-3,5-dimethylphenoxy)propyl)-N-((2-(1-methyl-1H-indole-5-carboxamido)ethyl)sulfonyl)-1H-indole-2-carboxamide] is 301 to 500 nM; for `Cc1cc(OCCCc2c(C(=O)NS(=O)(=O)CCN3C(=O)c4ccccc4C3=O)[nH]c3ccccc23)cc(C)c1Cl` [Example 197, 3-(3-(4-chloro-3,5-dimethylphenoxy)propyl)-N-((2-(1,3-dioxoisoindolin-2-yl)ethyl)sulfonyl)-1H-indole-2-carboxamide] it is 501 to 999 nM.
The same measure, in the same setting: the figure for `CC(=O)NCCS(=O)(=O)NC(=O)c1[nH]c2ccccc2c1CCCOc1cc(C)c(Cl)c(C)c1` [Example 198, N-((2-acetamidoethyl)sulfonyl)-3-(3-(4-chloro-3,5-dimethylphenoxy)propyl)-1H-indole-2-carboxamide] is 501 to 999 nM; for `Cc1cc(OCCCc2c(C(=O)NS(=O)(=O)CCNC(=O)NC3CCCCC3)[nH]c3ccccc23)cc(C)c1Cl` [Example 199, 3-(3-(4-chloro-3,5-dimethylphenoxy)propyl)-N-((2-(3-cyclohexylureido)ethyl)sulfonyl)-1H-indole-2-carboxamide] it is 301 to 500 nM.
`Cc1cc(OCCCc2c(C(=O)NS(=O)(=O)CCNC(=O)c3cccn3Cc3ccccc3)[nH]c3ccccc23)cc(C)c1Cl` [Example 200, N-((2-(1-benzyl-1H-pyrrole-2-carboxamido)ethyl)sulfonyl)-3-(3-(4-chloro-3,5-dimethylphenoxy)propyl)-1H-indole-2-carboxamide]: the Ki was in the range of 101 to 299 nM.
Turning to `Cc1cc(OCCCc2c(C(=O)NS(=O)(=O)c3cccc(C(=O)NC4CCOCC4)c3)[nH]c3ccccc23)cc(C)c1Cl` [Example 202, 3-(3-(4-chloro-3,5-dimethylphenoxy)propyl)-N-((3-((tetrahydro-2H-pyran-4-yl)carbamoyl)phenyl)sulfonyl)-1H-indole-2-carboxamide], the Ki lay in the range of 101 to 299 nM.
Turning to `Cc1cc(OCCCc2c(C(=O)NS(=O)(=O)CCN(C/C=C/c3ccccc3)C/C=C/c3ccccc3)[nH]c3ccccc23)cc(C)c1Cl` [Example 203, 3-(3-(4-chloro-3,5-dimethylphenoxy)propyl)-N-((2-(dicinnamylamino)ethyl)sulfonyl)-1H-indole-2-carboxamide], the Ki lay in the range of 301 to 500 nM.
The same measure, in the same setting: next, `Cc1cc(OCCCc2c(C(=O)NS(=O)(=O)CCNC(=O)C3CCCCC3)[nH]c3cccc(Cl)c23)cc(C)c1Cl` [Example 208, 4-chloro-3-(3-(4-chloro-3,5-dimethylphenoxy)propyl)-N-((2-(cyclohexanecarboxamido)ethyl)sulfonyl)-1H-indole-2-carboxamide]: 301 to 500 nM; `Cc1cc(OCCCc2c(C(=O)NS(=O)(=O)CC3CCN(C(=O)OCc4ccccc4)CC3)[nH]c3cc(Cl)ccc23)cc(C)c1Cl` [Example 209, benzyl 4-((N-(6-chloro-3-(3-(4-chloro-3,5-dimethylphenoxy)propyl)-1H-indole-2-carbonyl)sulfamoyl)methyl)piperidine-1-carboxylate]: 301 to 500 nM; `CC(=O)N1CCC(CS(=O)(=O)NC(=O)c2[nH]c3ccccc3c2CCCOc2cc(C)c(Cl)c(C)c2)CC1` [Example 210, N-(((1-acetylpiperidin-4-yl)methyl)sulfonyl)-3-(3-(4-chloro-3,5-dimethylphenoxy)propyl)-1H-indole-2-carboxamide]: 501 to 999 nM.
Still for that read-out and setting: next, `Cc1cc(OCCCc2c(C(=O)NS(=O)(=O)CC3CCN(C(=O)c4cccn4C)CC3)[nH]c3ccccc23)cc(C)c1Cl` [Example 211, 3-(3-(4-chloro-3,5-dimethylphenoxy)propyl)-N-(((1-(1-methyl-1H-pyrrole-2-carbonyl)piperidin-4-yl)methyl)sulfonyl)-1H-indole-2-carboxamide]: 301 to 500 nM; `Cc1cc(OCCCc2c(C(=O)NS(=O)(=O)C3CCN(C(=O)C4CCCCC4)CC3)[nH]c3cc(Cl)ccc23)cc(C)c1Cl` [Example 212, 6-chloro-3-(3-(4-chloro-3,5-dimethylphenoxy)propyl)-N-((1-(cyclohexanecarbonyl)piperidin-4-yl)sulfonyl)-1H-indole-2-carboxamide]: 301 to 500 nM; `Cc1cc(OCCCc2c(C(=O)NS(=O)(=O)C3CCN(C(=O)c4cccc(Oc5ccccc5)c4)CC3)[nH]c3cc(Cl)ccc23)cc(C)c1Cl` [Example 213, 6-chloro-3-(3-(4-chloro-3,5-dimethylphenoxy)propyl)-N-((1-(3-phenoxybenzoyl)piperidin-4-yl)sulfonyl)-1H-indole-2-carboxamide]: 301 to 500 nM.
Still for that read-out and setting: next, `Cc1cc(OCCCc2c(C(=O)NS(=O)(=O)C3CCN(C(=O)c4cc(-c5ccccc5O)n[nH]4)CC3)[nH]c3cc(Cl)ccc23)cc(C)c1Cl` [Example 214]: 301 to 500 nM.

As usually defined, the Ki is a measure of affinity in units of concentration, obtained from inhibition or displacement.

The values are drawn from patent US10844032B2, “Substituted benzofuran, benzothiophene and indole Mcl-1 inhibitors” (Vanderbilt University, priority 2012, dated 2020).
